Test [1] has as its target T1, human Z A1AT (Homo sapiens, UniProt P01009, E366K). The test is described as follows: Circulating human Z A1AT levels in huZ mouse (plasma ELISA). Conditions: 5, 15 or 50 mg/kg twice a day by oral gavage for 14 days; plasma days 12, 13 and 14 vs basal. Set-up: expressed in transfected cells; host or cells: transgenic huZ mouse (line Z11.03, C57Bl/6), expressed in liver, measured in plasma. In kind it is in vivo. The source says:
The huZ mouse (also referred to as the PiZZ mouse) is a transgenic mouse strain that contains multiple copies of the Z variant of the human A1AT gene, developed by two separate groups (Dycaico et al Science (1988) 242:1409-12) and Carlson et al J. Clin Invest (1989) 83:1183-90). HuZ mice are on a C57Bl/6 background and express the human Z A1AT protein in liver tissue. The mice used in this study are from the progeny of Carlson and colleagues (transgenic line Z11.03). […]
HuZ mice (n=4/group; male or female) with basal human Z A1AT plasma levels of between 200-600 μg/ml were treated with either vehicle or the compounds of Examples 1 or 17 at 5, 15 or 50 mg/kg twice a day by oral gavage for 14 consecutive days. […] Human Z A1AT levels in mouse plasma samples were measured by ELISA (Human Serpin A1/α1 antitrypsin duo set ELISA, R& D Systems, DY1268) per manufacturer's instructions.
Briefly, a 96 well plate was coated with human A1AT capture antibody overnight at room temperature (1:180 dilution from stock, 100 μl final volume/well). […] After which, 50 μl stop solution (2M H2SO4) was added and optical density (OD) of each well was read at 450 nm with 570 nm blank subtracted from each well using a microplate reader. […]
(In general: In an ELISA, binding on a coated surface is turned into a signal by an enzyme label.)

The target in the next test is T2, human Siiyama A1AT (Homo sapiens, UniProt P01009, S77F).
T2 construct: expressed in transfected cells; host or cells: HEK-Siiyama cells (transfected HEK-EBNA)
In words: A1AT cell secretion assay using HEK-Siiyama cells (ELISA). The class given is cell-based. To be noted: 48 h; for secretion of Siiyama A1AT from HEK-Siiyama cells: 1 or 10 μM. Here is the method:
(§1) HEK-Siiyama cells, a human embryonic kidney cell line stably transfected with the human Siiyama A1AT gene, were plated into 96 well plates (3.0×10^5 cells/ml with 200 μl of media/well) overnight at 37° C. in a humidified atmosphere containing 5% CO2. Following incubation cells were washed with 200 μl serum-free media three times and media was replaced with serum-free media containing vehicle, 10 μM suberanilohydroxamic acid (SAHA) or a compound of Example 1 (at 1 and 10 μM) in replicates of eight for 48 h in a 37° C. incubator in a final volume of 200 μl. At the end of the incubation step the supernatants were removed from the wells, centrifuged at 1000×g at 4° C. for 10 min and were assayed for human A1AT levels by ELISA (Human Serpin A1/α1-antitrypsin duo set ELISA, R& D Systems, DY1268) per manufacturer's instructions.
(§2) Briefly, a 96 well plate was coated with human A1AT capture antibody overnight at room temperature (1:180 dilution from stock, 100 μl final volume/well). The capture antibody was then removed and wells washed three times with 300 μl wash buffer (0.05% Tween 20 in PBS) and then 200 μl reagent diluent (25% Tween 20 in PBS) was incubated in each well for 1 h at room temperature. Diluted samples, standards (125, 250, 500, 1000, 2000, 4000 and 8000 pg/ml A1AT) or blanks were then added to each well in duplicate and the plates were covered with a plate sealer and left at room temperature for 2 h. […] After which, 50 μl stop solution (2M H2SO4) was added and optical density (OD) of each well was read at 450 nm with 570 nm blank subtracted from each well using a microplate reader. A 4 parameter logistic curve was constructed using GraphPad Prism 7 and A1AT concentrations were determined in each sample by interpolation from a standard curve and multiplying by the appropriate dilution factor.
The amount of human Siiyama A1AT secreted from transfected HEK-EBNA cells into the media was measured by ELISA. […]

Another test concerns the target T3, human M A1AT (Homo sapiens, UniProt P01009).
T3 construct: expressed in transfected cells; host or cells: HEK-M cells (transfected HEK-EBNA)
In words: A1AT cell secretion assay using HEK-M cells (ELISA). The class given is cell-based. To be noted: 10 μM, 48 h. Here is the method: as §1, with “HEK-M” for “HEK-Siiyama”, “M A1AT,” for “the human Siiyama A1AT gene,”, “Examples 1-16” for “Example 1 (at 1 and 10 μM)”, “six” for “eight”, “A1/α1 antitrypsin” for “A1/α1-antitrypsin”
Briefly, a 96 well plate was coated with human A1AT capture antibody overnight at room temperature (1:180 dilution from stock, 100 μl final volume/well). The capture antibody was then removed and wells washed three times with 300 μl wash buffer (0.05% Tween 20 in PBS) and then 200 μl reagent diluent ([…]) was incubated in each well for 1 h at room temperature. Diluted samples, standards (125, 250, 500, 1000, 2000, 4000 and 8000 pg/ml A1AT) or blanks were then added to each well in duplicate and the plates were covered with a plate sealer and left at room temperature for 2 h. At the end of the sample incubation step, samples were removed and all wells washed as previously and 100 μl detection antibody (1:180 dilution from stock) was added to each well and incubated for a further 2 h at room temperature. Following incubation with detection antibody, supernatant was removed and wells were washed as previously and 100 μl streptavidin-HRP solution (1:200 dilution from stock) was added to each well for 20 min in the dark. After which, 50 μl stop solution (2M H2SO4) was added and optical density (OD) of each well was read at 450 nm with 570 nm blank subtracted from each well using a microplate reader. A 4 parameter logistic curve was constructed using GraphPad Prism 7 and A1AT concentrations were determined in each sample by interpolation from a standard curve and multiplying by the appropriate dilution factor.
The amount of human M A1AT secreted from transfected HEK-EBNA cells into the media was measured by ELISA. SAHA at 10 μM was used a positive control for all in vitro A1AT secretion experiments.

The target of test [2] is T1, human Z A1AT. The test is described as follows: A1AT cell secretion assay using HEK-Z cells (ELISA). The class given is cell-based. Conditions: 48 h, supernatant ELISA. Details: expressed in transfected cells; host or cells: HEK-Z cells (transfected HEK-EBNA). Here is the method:
HEK-Z cells, a human embryonic kidney cell line stably transfected with the human Z A1AT gene, were plated into 96 well plates (3.0×10^5 cells/ml with 200 μl of media/well) overnight at 37° C. in a humidified atmosphere containing 5% CO2. Following incubation cells were washed with 200 μl serum-free media three times and media was replaced with treatments in quadruplicate using serum-free media containing vehicle, 10 μM suberanilohydroxamic acid (SAHA) or the compounds of Examples 1-18 (at concentrations of 10, 33, 100 and 333 nM) for 48 h in a 37° C. incubator in a final volume of 200 μl. At the end of the incubation step the supernatants were removed from the wells, centrifuged at 1000×g at 4° C. for 10 min and were assayed for human A1AT levels by ELISA (Human Serpin A1/α1-antitrypsin duo set ELISA, R& D Systems, DY1268) per manufacturer's instructions.
as §2
The amount of human A1AT secreted from transfected HEK-EBNA cells into the media was measured by ELISA. […]

T2 sequence (P01009 25-418 S77F): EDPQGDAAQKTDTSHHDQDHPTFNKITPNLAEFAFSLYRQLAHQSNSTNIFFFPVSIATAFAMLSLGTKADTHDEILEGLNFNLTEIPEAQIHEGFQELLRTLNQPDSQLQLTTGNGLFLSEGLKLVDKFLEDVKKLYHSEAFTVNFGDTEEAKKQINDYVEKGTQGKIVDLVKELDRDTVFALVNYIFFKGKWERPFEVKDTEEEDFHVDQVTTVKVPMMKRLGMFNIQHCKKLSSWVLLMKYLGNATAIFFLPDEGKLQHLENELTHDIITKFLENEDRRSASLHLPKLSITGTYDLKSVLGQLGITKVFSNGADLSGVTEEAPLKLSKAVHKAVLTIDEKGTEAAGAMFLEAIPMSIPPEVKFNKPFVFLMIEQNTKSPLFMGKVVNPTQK
T1 sequence (P01009 25-418 E366K): as the sequence (P01009 25-418 S77F) above, with F53S, E342K counted along it
T3 sequence (P01009 25-418): as the sequence (P01009 25-418 S77F) above, with F53S counted along it

On to `O=C(O)C1CCN(S(=O)(=O)c2cccc3cccnc23)CC1` [Example 1, 1-(Quinolin-8-ylsulfonyl)piperidine-4-carboxylic acid], for which the “secretion of human Z A1AT compared to baseline levels in huZ mice” value on human Z A1AT [1] is given as “stimulated secretion”. In addition, the “secretion of Siiyama A1AT from HEK-Siiyama cells” value at human Siiyama A1AT was “did not stimulate secretion”. Also, the “secretion of human M A1AT from HEK-M cells” value (“secretion of human M A1AT” for short) on human M A1AT was “did not lead to an increase”.

Take `O=C(O)C1CCN(S(=O)(=O)c2cccc(Cl)c2)CC1` [Example 3, 1-((3-Chlorophenyl)sulfonyl)piperidine-4-carboxylic acid]: at human M A1AT, the “secretion of human M A1AT” value is given as “did not lead to an increase”.

Turning to `O=C(O)C1CCN(S(=O)(=O)c2cccc(Cl)c2Cl)CC1` [Example 4, 1-((2,3-Dichlorophenyl)sulfonyl)piperidine-4-carboxylic acid], at human M A1AT, the “secretion of human M A1AT” value is “did not lead to an increase”.

Take `O=C(O)C1CCN(S(=O)(=O)c2ccccc2C(F)(F)F)CC1` [Example 10, 1-((2-(Trifluoromethyl)phenyl)sulfonyl)piperidine-4-carboxylic acid]: the “secretion of human M A1AT” value at human M A1AT is recorded as “did not lead to an increase”.

As to `O=C(O)C1CCN(S(=O)(=O)c2ccc(C(F)(F)F)cc2)CC1` [Example 12, 1-((4-(Trifluoromethyl)phenyl)sulfonyl)piperidine-4-carboxylic add], the “Median A1AT increase over vehicle at 300 nM” value (from here on “Median A1AT increase”) at human Z A1AT [2] is 200.

As to `O=C(O)[C@H]1CCN(S(=O)(=O)c2ccccc2C(F)(F)F)C1` [Example 15, (S)-1-((2-(Trinfluoromethyl)phenyl)sulfonyl)pyrrolidine-3-carboxylic acid], the “Median A1AT increase” value at human Z A1AT [2] is 230.

Consider `O=C(O)[C@H]1CCCN(S(=O)(=O)c2ccccc2C(F)(F)F)C1` [Example 17, (S)-1-((2-(Trinfluoromethyl)phenyl)sulfonyl)piperidine-3-carboxylic acid], for which, on human Z A1AT [1], the “secretion of human Z A1AT compared to baseline levels in huZ mice” value was “stimulated secretion”. Further, the “secretion of Siiyama A1AT from HEK-Siiyama cells” value at human Siiyama A1AT was “did not stimulate secretion”. Also, at human Z A1AT [2], the “Median A1AT increase” value amounted to 310. Further, the “secretion of human M A1AT” value at human M A1AT is “did not lead to an increase”.

In the case of `O=C(O)[C@@H]1CCCN(S(=O)(=O)c2ccccc2C(F)(F)F)C1` [Example 18, (R)-1-((2-(Trifluoromethyl)phenyl)sulfonyl)piperidine-3-carboxylic acid], the “secretion of human M A1AT” value at human M A1AT is “did not lead to an increase”.

Take `O=C(CCCCCCC(=O)Nc1ccccc1)NO` [SAHA, suberanilohydroxamic acid, reference compound]: the “Siiyama A1AT secretion from HEK-Siiyama cells (positive control)” value at human Siiyama A1AT (10 μM) is listed as “stimulated an increase”.

The values are drawn from patent publication US12611402B2, “Compounds and their use for the treatment of ALPHA1-antitrypsin deficiency” (CENTESSA PHARMACEUTICALS (UK) LIMITED, priority 2019, dated 2026).
